These results are taken from publication PMC8591201, “Anti-Tumor Activity of AZD4547 Against NTRK1 Fusion Positive Cancer Cells Through Inhibition of NTRKs” (Frontiers in Oncology, 2021).

In general, IC50 refers to the concentration needed to halve the response being measured. High values mean weaker potency, low ones greater potency. Usually GI50 stands for the concentration that inhibits growth by half.

The nature of one series: in vitro. The arrangement: CellTiter-Glo viability of parental Ba/F3 cells, counter-screen. The conditions noted are these: mouse, parental ba/f3 cells; read-out: AZD4547 parental. As for the experimental part:
To obtain the GI50 value of a substance, cell viability was measured using MTT (G4000, Promega, USA) for KM12(Luc) cell and Cell titer glo (G7572, Promega, USA) for other cell lines. For adherent cells, cells were seeded at 5,000 cells/well in a 96-well plate and treated with a substance one day after cell seeding. For suspension cells, 10,000 cells/well were seeded and the substance was treated after 4 h stabilization of cells. The substance was treated at 10 points of 1:3 serial dilution (0–100 µmol/L) for 72 h. For MTT assay, 15 µL dye solution was added to each well and incubated 4 h at 37°C. 100 µL of solubilization solution was added and followed 1 hr incubation. Absorbance at 570 nm of each well was recorded using EnVision microplate reader (Perkin Elmer). For Cell titer glo assay, Cell titer glo reagent was treated in each well and measured the luminescence by EnVision microplate reader (Perkin Elmer). Viable cells in each well were normalized by using 0.5% DMSO-treated wells (100%). The inhibitor dose−response curve was fitted and GI50 values were calculated using Prism 7.0 software (GraphPad). All assays were performed in duplicate and the standard deviation (SD) was determined from two independent experiments. […] Cell viability after 72 h exposure to the indicated inhibitors, determined by using a cell titer glo assay in duplicate mode. […]

For series [1], the target named is T1, TRKB (Homo sapiens, UniProt Q16620).
T1 construct: gene NTRK2
T1 sequence (Q16620 32-822): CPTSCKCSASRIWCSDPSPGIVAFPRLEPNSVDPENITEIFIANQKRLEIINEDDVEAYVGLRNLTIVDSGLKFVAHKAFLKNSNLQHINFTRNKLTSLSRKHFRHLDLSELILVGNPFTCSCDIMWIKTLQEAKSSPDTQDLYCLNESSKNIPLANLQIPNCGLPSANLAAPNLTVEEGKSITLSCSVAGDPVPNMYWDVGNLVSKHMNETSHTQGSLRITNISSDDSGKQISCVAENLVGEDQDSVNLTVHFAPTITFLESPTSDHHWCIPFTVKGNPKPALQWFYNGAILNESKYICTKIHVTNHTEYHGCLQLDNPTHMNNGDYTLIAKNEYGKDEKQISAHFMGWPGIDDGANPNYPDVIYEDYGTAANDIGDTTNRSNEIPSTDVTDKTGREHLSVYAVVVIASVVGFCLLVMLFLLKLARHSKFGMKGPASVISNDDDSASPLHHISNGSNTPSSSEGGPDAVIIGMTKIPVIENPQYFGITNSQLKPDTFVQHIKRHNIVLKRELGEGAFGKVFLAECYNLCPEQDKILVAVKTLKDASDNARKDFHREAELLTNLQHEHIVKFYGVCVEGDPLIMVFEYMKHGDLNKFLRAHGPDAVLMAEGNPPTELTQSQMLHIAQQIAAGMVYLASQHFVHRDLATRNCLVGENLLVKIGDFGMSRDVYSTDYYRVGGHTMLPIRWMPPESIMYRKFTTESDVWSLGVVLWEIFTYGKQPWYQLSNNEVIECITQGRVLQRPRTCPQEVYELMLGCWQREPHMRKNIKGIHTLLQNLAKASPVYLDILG
Description: radiometric biochemical kinase assay.

Another series addresses T2, TRKC (Homo sapiens, UniProt Q16288).
T2 construct: gene NTRK3
The series can be described thus: radiometric biochemical kinase assay.

In series [2] the test system is T3, TRKB.
T3 construct: ETV6 (1-336)-NTRK2 kinase domain (455-822) fusion expressed in Ba/F3
The series can be described thus: cells. To be noted: Mus musculus, BaF3, 72 h; read-out: AZD4547 GI50. Also on record: species or system Ba/F3; CellTiter-Glo anti-proliferation of Ba/F3 cells transformed with ETV6-NTRK fusions. The procedure: (§1) To obtain the GI50 value of a substance, cell viability was measured using MTT (G4000, Promega, USA) for KM12(Luc) cell and Cell titer glo (G7572, Promega, USA) for other cell lines. For adherent cells, cells were seeded at 5,000 cells/well in a 96-well plate and treated with a substance one day after cell seeding. For suspension cells, 10,000 cells/well were seeded and the substance was treated after 4 h stabilization of cells. The substance was treated at 10 points of 1:3 serial dilution (0–100 µmol/L) for 72 h. For MTT assay, 15 µL dye solution was added to each well and incubated 4 h at 37°C. 100 µL of solubilization solution was added and followed 1 hr incubation. Absorbance at 570 nm of each well was recorded using EnVision microplate reader (Perkin Elmer). For Cell titer glo assay, Cell titer glo reagent was treated in each well and measured the luminescence by EnVision microplate reader (Perkin Elmer). Viable cells in each well were normalized by using 0.5% DMSO-treated wells (100%). The inhibitor dose−response curve was fitted and GI50 values were calculated using Prism 7.0 software (GraphPad). All assays were performed in duplicate and the standard deviation (SD) was determined from two independent experiments. To investigate the inhibitory activity of AZD4547 against clinically relevant TRK mutants which have resistance to the known TRK inhibitors ([8], [44]), we established Ba/F3 cell lines harboring the ETV6-NTRKs fusion genes (NTRK1, NTRK1G595R, NTRK1G667A, NTRK1G667C, NTRK1G667S and NTRK2) ( Supplementary Figure 2 ). The mutation status of each established cell line was confirmed by sequencing of its cDNA ( Supplementary Figure 2 ). The anti-proliferation activity of AZD4547 was then measured in each cell line ( Figure 2A and Table S2 ). […] However, AZD4547 has no inhibitory activity against Ba/F3 harboring clinically relevant TRKs mutants including TRKA G595R, TRKA G667S, TRKA G667C and TRKA G667A. We next evaluated if AZD4547 is capable of suppressing the phosphorylation of TRKA/B in Ba/F3 cell lines ( Figure 2B ). […] Also, phosphorylation of TRKA/B is almost completely abolished using 1 µM of AZD4547. […] (A) Summary of GI50s of AZD4547 against Ba/F3: TRKA mutants or TRKB. Cell viability after 72 h exposure to the indicated inhibitors, determined by using a cell titer glo assay in duplicate mode. Data was plotted as mean GI50 ± SD of two independent experiments. (B) AZD4547 inhibits phosphorylation of TRKA/B and PLC-gamma in Ba/F3 harboring TRKA and TRKB, respectively. […] Data are representative of three independent experiments.

Another series has as its system T4, TRKA G667C.
T4 construct: ETV6 (1-336)-NTRK1 kinase domain (434-790) fusion expressed in Ba/F3
Description: cells. The arrangement: species or system Ba/F3; CellTiter-Glo anti-proliferation of Ba/F3 cells transformed with ETV6-NTRK fusions. The conditions noted are these: Mus musculus, BaF3, 72 h; read-out: AZD4547 GI50. The procedure:
as §1

Another series relates to T5, TRKA.
T5 construct: ETV6 (1-336)-NTRK1 kinase domain (434-790) fusion expressed in Ba/F3
Description: cells. Also on record: species or system Ba/F3; CellTiter-Glo anti-proliferation of Ba/F3 cells transformed with ETV6-NTRK fusions. The conditions noted are these: Mus musculus, BaF3, 72 h; read-out: AZD4547 GI50. The procedure:
as §1

Another series has as its system T6, TRKA G595R.
T6 construct: ETV6 (1-336)-NTRK1 kinase domain (434-790) fusion expressed in Ba/F3
Description: cells. Also on record: species or system Ba/F3; CellTiter-Glo anti-proliferation of Ba/F3 cells transformed with ETV6-NTRK fusions. The conditions noted are these: Mus musculus, BaF3, 72 h; read-out: AZD4547 GI50. The procedure:
as §1

A further series has as its system T7, TRKA G667S.
T7 construct: ETV6 (1-336)-NTRK1 kinase domain (434-790) fusion expressed in Ba/F3
The series can be described thus: cells. The arrangement: species or system Ba/F3; CellTiter-Glo anti-proliferation of Ba/F3 cells transformed with ETV6-NTRK fusions. To be noted: Mus musculus, BaF3, 72 h; read-out: AZD4547 GI50. The procedure: as §1

T2 sequence (Q16288 32-839): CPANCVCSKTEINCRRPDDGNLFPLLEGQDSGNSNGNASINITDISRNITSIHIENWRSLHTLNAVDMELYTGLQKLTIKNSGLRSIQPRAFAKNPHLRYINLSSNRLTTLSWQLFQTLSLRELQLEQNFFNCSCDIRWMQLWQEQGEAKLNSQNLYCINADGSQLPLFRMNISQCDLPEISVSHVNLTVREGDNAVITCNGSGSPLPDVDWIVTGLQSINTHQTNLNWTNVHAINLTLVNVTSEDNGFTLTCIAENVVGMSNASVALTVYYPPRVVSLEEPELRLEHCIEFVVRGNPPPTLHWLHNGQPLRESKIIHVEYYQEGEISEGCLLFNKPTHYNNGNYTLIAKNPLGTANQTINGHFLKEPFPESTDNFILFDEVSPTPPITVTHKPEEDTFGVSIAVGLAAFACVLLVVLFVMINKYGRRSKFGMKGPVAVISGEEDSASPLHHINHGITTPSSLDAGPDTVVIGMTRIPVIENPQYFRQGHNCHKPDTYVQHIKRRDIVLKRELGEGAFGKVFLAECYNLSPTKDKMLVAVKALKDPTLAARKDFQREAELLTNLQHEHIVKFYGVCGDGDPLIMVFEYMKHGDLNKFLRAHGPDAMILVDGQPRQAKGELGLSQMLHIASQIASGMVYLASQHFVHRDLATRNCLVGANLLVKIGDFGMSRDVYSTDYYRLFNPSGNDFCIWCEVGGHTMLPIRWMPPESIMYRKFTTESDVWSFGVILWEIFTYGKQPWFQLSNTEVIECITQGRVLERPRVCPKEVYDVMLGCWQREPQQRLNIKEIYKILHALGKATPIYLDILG

Regarding `COc1cc(CCc2cc(NC(=O)c3ccc(N4C[C@@H](C)N[C@@H](C)C4)cc3)n[nH]2)cc(OC)c1` [AZD4547], the CC50 at 72 h in “in vitro” was > 2000 nM. Further, the IC50 on TRKB [1] amounted to 7.6 nM; at TRKC, 1 nM. The GI50 in the series with TRKB [2] is 104 ± 6.1 nM; in the series with TRKA G667C it was > 2000 nM; in the series on TRKA it was 66 ± 11.5 nM; in the series on TRKA G595R, > 2000 nM; with TRKA G667S, > 2000 nM.
